Numbers after ± are expanded uncertainties.
Conditions: Liquid; for Critical pressure: Direct measurement; for Critical temperature: Visual observation in an unstirred cell

## CCCCO [butan-1-ol]
  Critical pressure: 4406 ± 22 kPa
  Critical temperature: 563 ± 0.4 K

## CCCCCCCCCC [decane]
  Critical pressure: 2106 ± 15 kPa
  Critical temperature: 617.7 ± 0.4 K

## CCCCCCC [heptane]
  Critical pressure: 2736 ± 17 kPa
  Critical temperature: 540.1 ± 0.4 K

## CCCCCC [hexane]
  Critical pressure: 3033 ± 18 kPa
  Critical temperature: 507.8 ± 0.4 K

## CCCCCCCCC [nonane]
  Critical pressure: 2278 ± 16 kPa
  Critical temperature: 594.5 ± 0.4 K

## CCCCCCCC [octane]
  Critical pressure: 2496 ± 16 kPa
  Critical temperature: 568.9 ± 0.4 K

Source: the NIST ThermoML archive (doi:10.1021/acs.jced.8b00585)
